Laboratory results: US6872805B2 (Bristol-Myers Squibb Company, priority 2000, dated 2005)
Like-named read-outs stand apart in the source and are kept apart here.

What was measured:
[1] = tested on: HCV replicon in Huh7 cells; experiment: HCV replicon cell-based assay; design: species or system HCV strain 1B; details: HCV replicon, Huh7 cells, 4 days, activity ranges, read-out: EC50
Text: An HCV replicon whole cell system was established as described by Lohmann V, Korner F, Koch J, Herian U, Theilmann L, Bartenschlager R., Science 285(5424):110-3 (1999). This system enabled us to evaluate the effects of our HCV Protease compounds on HCV RNA replication. Briefly, using the HCV strain 1B sequence described in the Lohmann paper (Assession number:AJ238799), an HCV cDNA was generated encoding the 5′ internal ribosome entry site (IRES), the neo gene, the EMCV-IRES and the HCV nonstructural proteins, NS3-NS5B, and 3′ NTR. […] Resulting cell lines were characterized for positive and negative RNA production and protein production over time.
Huh7 cells, constitutively expressing the HCV replicon, were grown in DMEM containing 10% FCS (Fetal calf serum) and 1 mg/ml G418 (Gibco-BRL). Cells were seeded the night before (1.5×10^4 cells/well) in 96-well tissue-culture sterile plates. Compound was prepared in DMEM containing 4% FCS, 1:100 Penicillin/Streptomysin, 1:100 L-glutamine and 0.5% DMSO. Compound/DMSO mixes were added to the cells and incubated for 4 days at 37° C. After 4 days, cells were either lyzed using the Rneasy kit (Qiagen) to isolate and purify RNA for an EC50 determination or assessed for cytotoxicity using alamar Blue (Trek Diagnotstic Systems) for a CC50 reading. For an EC50 determination, purified total RNA was normalized using RiboGreen (Jones L J, Yue S T, Cheung C Y, Singer V L, Anal. Chem., 265(2):368-74 (1998)) and relative quantitation of HCV RNA expression assessed using the Taqmann procedure (Kolykhalov A A, Mihalik K, Feinstone S M, Rice C M, Journal of Virology 74, 2046-2051 (2000)). Briefly, RNA made to a volume of 5 μl (≦1 ng) was added to a 20 μl Ready-Mix containing the following: 5×EZ rTth buffer, 3 mM MnOAc2, 3 mM dNTPs, 200 nM forward primer, 600 nM reverse primer, 100 nM probe and rTth polymerase. Samples containing known concentrations of HCV RNA transcript were run as standards. Using the following cycling protocol (95° C., 1 min; 60° C., 0.5 min; 95° C., 2 min; 40 cycles of 94° C., 0.5 min, 60° C.; 1 min; and completing with 60° C., 10 min), HCV RNA expression was quantitated as described in the Perkin Elmer manual. The toxicity of compound (CC50) was determined by adding 1/10th volume of alamar Blue to the media incubating the cells. After 4 hr, the fluorescence signal from each well was read, with an excitation wavelength at 530 nm and an emission wavelength of 580 nm, using the Cytofluor Series 4000 (Perspective Biosystems).

[2] = target: HCV NS3/4A protease complex (Hepatitis C virus genotype 1a, UniProt P27958, C1454S/C1711G); experiment: Recombinant HCV NS3/4A protease complex FRET peptide assay (strain not stated); format: biochemical; details: strain not stated, activity ranges
[3] = IC50, NS3/4A protease enzyme assay

Chain of HCV NS3/4A protease complex (P27958 1027-1711, stated change not applied): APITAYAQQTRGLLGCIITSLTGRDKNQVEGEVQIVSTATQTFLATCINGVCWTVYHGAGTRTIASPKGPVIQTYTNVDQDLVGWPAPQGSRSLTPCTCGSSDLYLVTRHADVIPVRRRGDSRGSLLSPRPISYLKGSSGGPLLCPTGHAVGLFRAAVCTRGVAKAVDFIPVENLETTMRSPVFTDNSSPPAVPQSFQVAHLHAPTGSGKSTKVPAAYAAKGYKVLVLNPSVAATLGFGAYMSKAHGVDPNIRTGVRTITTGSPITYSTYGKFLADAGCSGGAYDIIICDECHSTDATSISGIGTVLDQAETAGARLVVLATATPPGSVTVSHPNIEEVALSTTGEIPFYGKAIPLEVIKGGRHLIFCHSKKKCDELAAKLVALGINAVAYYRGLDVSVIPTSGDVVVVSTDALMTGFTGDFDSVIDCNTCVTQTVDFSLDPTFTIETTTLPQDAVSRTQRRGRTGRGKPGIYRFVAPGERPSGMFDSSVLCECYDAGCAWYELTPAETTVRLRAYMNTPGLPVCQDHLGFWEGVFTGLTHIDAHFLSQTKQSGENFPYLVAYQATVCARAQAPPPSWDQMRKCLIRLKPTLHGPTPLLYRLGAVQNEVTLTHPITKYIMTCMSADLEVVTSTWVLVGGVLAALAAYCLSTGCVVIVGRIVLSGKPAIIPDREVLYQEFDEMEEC
Chain of HCV NS3/4A protease complex (P27958 1027-1711, stated change not applied): as above

1-[2S-(4-fluoro-benzenesulfonylamino)-3,3-dimethyl-butyryl]-4R-(7-methoxy-2-phenylquinolin-4-yloxy)-pyrrolidine-2S-carboxylic acid (1R-cyclopropanesulfonylaminocarbonyl -2S-vinyl-cyclopropyl)amide [Compound 119]
EC50 [1]: < 500 nM
IC50 ([2]; NS3/4A protease enzyme assay, read-out: IC50): < 50 nM

C=C[C@@H]1C[C@]1(NC(=O)C1CC(Oc2cc(-c3ccccc3)nc3cc(OC)ccc23)CN1C(=O)[C@@H](NC(=O)OCCF)C(C)(C)C)C(=O)NS(=O)(=O)C1CC1 (stereo partly drawn) [Compound 122, {1S-[2S-(1R-cyclopropanesulfonylaminocarbonyl-2S-vinyl-cyclopropylcarbamoyl)-4R-(7-methoxy-2-phenyl-quinolin-4-yloxy)-pyrrolidine-1-carbonyl]-2,2-dimethyl-propyl}-carbamic acid 2-fluoroethyl ester]
EC50 ([1]; Hepatitis C virus, Huh-7, 96 h): < 50 nM
IC50 [2, 3]: < 50 nM

C=CC1CC1(NC(=O)[C@@H]1C[C@@H](Oc2cc(-c3ccccc3)nc3cc(OC)ccc23)CN1C(=O)[C@@H](NC(=O)OC(C)(C)C)C(C)C)C(=O)NS(C)(=O)=O (some centres unmarked) [Compound 89]
EC50 ([1]; Hepatitis C virus, Huh-7, 96 h): < 5000 nM
IC50 [2, 3]: < 500 nM

C=CCC[C@](C)(NC(=O)[C@@H]1C[C@@H](Oc2cc(-c3ccccc3)nc3cc(OC)ccc23)CN1C(=O)C(NC(=O)OC(C)(C)C)C(C)(C)C)C(=O)NS(=O)(=O)c1ccccc1Cl (some centres unmarked) [Compound 42]
EC50 ([1]; Hepatitis C virus, Huh-7, 96 h): < 500 nM
IC50 [2, 3]: < 50 nM

C=CC1C[C@]1(NC(=O)[C@@H]1C[C@@H](Oc2cc(-c3ccccc3)nc3cc(OC)ccc23)CN1C(=O)[C@@H](NC(=O)OC(C)(C)C)C(C)(C)C)C(=O)NS(=O)(=O)C1CCCCC1 (stereo in doubt) [Compound 13, {1-[2-(1-Cyclohexanesulfonylaminocarbonyl-2-vinylcyclopropylcarbamoyl)-4-(7-methoxy-2-phenylquinolin-4-yloxy)pyrrolidine-1-carbonyl]-2,2-dimethylpropyl}carbamic acid tert-butyl ester]
EC50 ([1]; Hepatitis C virus, Huh-7, 96 h): < 500 nM
IC50 [2, 3]: < 500 nM

C=CCC[C@](C)(NC(=O)[C@@H]1C[C@@H](Oc2cc(-c3ccccc3)nc3cc(OC)ccc23)CN1C(=O)C(NC(=O)OC(C)(C)C)C(C)(C)C)C(=O)NS(=O)(=O)c1ccc(F)c(Cl)c1 (some centres unmarked) [Compound 45]
EC50 ([1]; Hepatitis C virus, Huh-7, 96 h): < 500 nM
IC50 [2, 3]: < 50 nM

COc1ccc2c(OC3C[C@@H](C(=O)NC4(C(=O)NS(=O)(=O)C5CC5)CCC45CC5)N(C(=O)[C@@H](NC(=O)OC(C)(C)C)C(C)(C)C)C3)cc(-c3ccccc3)nc2c1 (some centres unmarked) [Compound 141]
EC50 ([1]; Hepatitis C virus, Huh-7, 96 h): < 5000 nM
IC50 [2, 3]: < 500 nM

C=CC1C[C@]1(NC(=O)[C@@H]1C[C@@H](Oc2cc(-c3ccccc3)nc3cc(OC)ccc23)CN1C(=O)[C@@H](NC(=O)OC(C)(C)C)C(C)(C)C)C(=O)NS(=O)(=O)CC(C)(C)C (stereo in doubt) [Compound 14, {1-[2-[1-(2,2-Dimethylpropane-1-sulfonylaminocarbonyl)-2-vinylcyclopropylcarbamoyl]-4-(7-methoxy-2-phenylquinolin-4-yloxy)pyrrolidine-1-carbonyl]-2,2-dimethylpropyl}-carbamic acid tert-butyl ester]
EC50 ([1]; Hepatitis C virus, Huh-7, 96 h): < 500 nM
IC50 [2, 3]: < 500 nM

C=C[C@@H]1C[C@]1(NC(=O)C1C[C@@H](Oc2cc(-c3ccccc3)nc3cc(OC)ccc23)CN1C(=O)[C@@H](NC(=O)CC1CC1)C(C)(C)C)C(=O)NS(=O)(=O)C1CC1 (stereo partly drawn) [Compound 104, 1-[2S-(2-cyclopropyl-acetylamino)-3,3-dimethyl-butyryl]-4R-(7-methoxy-2-phenyl-quinolin-4-yloxy)-pyrrolidine-2S-carboxylic acid (1R-cyclopropanesulfonylaminocarbonyl-2S-vinyl-cyclopropyl)-amide]
EC50 ([1]; Hepatitis C virus, Huh-7, 96 h): < 50 nM
IC50 [2, 3]: < 50 nM

C=CCC[C@](C)(NC(=O)[C@@H]1C[C@@H](Oc2cc(-c3ccccc3)nc3cc(OC)ccc23)CN1C(=O)C(NC(=O)OC(C)(C)C)C(C)(C)C)C(=O)NS(=O)(=O)c1ccccc1 (some centres unmarked) [Compound 38]
EC50 ([1]; Hepatitis C virus, Huh-7, 96 h): < 50 nM
IC50 [2, 3]: < 50 nM

C=CCC[C@](C)(NC(=O)[C@@H]1C[C@@H](Oc2cc(-c3ccccc3)nc3cc(OC)ccc23)CN1C(=O)C(NC(=O)OC(C)(C)C)C(C)(C)C)C(=O)NS(=O)(=O)c1ccc(C#N)cc1 (some centres unmarked) [Compound 41]
EC50 ([1]; Hepatitis C virus, Huh-7, 96 h): < 500 nM
IC50 [2, 3]: < 50 nM

CCOC(=O)N[C@H](C(=O)N1C[C@H](Oc2cc(-c3ccccc3)nc3cc(OC)ccc23)C[C@H]1C(=O)N[C@]1(C(=O)NS(=O)(=O)C2CC2)CC1CC)C(C)C (some centres unmarked) [Compound 7]
EC50 ([1]; Hepatitis C virus, Huh-7, 96 h): < 500 nM
IC50 [2, 3]: < 50 nM

C=C[C@@H]1C[C@]1(NC(=O)C1CC(Oc2cc(-c3ccccc3)nc3cc(OC)ccc23)CN1C(=O)[C@@H](NC(=O)C(=O)OC)C(C)(C)C)C(=O)NS(=O)(=O)C1CC1 (stereo partly drawn) [Compound 121, N-{1S-[2S-(1R-cyclopropanesulfonylaminocarbonyl-2S-vinyl-cyclopropylcarbamoyl)-4R-(7-methoxy-2-phenyl-quinolin-4-yloxy)-pyrrolidine-1-carbonyl]-2,2-dimethyl-propyl}-oxalamic acid methyl ester]
EC50 ([1]; Hepatitis C virus, Huh-7, 96 h): < 500 nM
IC50 [2, 3]: < 50 nM

C=CC1C[C@]1(NC(=O)[C@@H]1C[C@@H](Oc2cc(-c3ccccc3)nc3cc(OC)ccc23)CN1C(=O)[C@@H](NC(=O)OC(C)(C)C)C(C)CC)C(=O)NS(=O)(=O)C1CC1 (some centres unmarked) [Compound 24]
EC50 ([1]; Hepatitis C virus, Huh-7, 96 h): < 500 nM
IC50 [2, 3]: < 500 nM

C=CC1C[C@]1(NC(=O)[C@@H]1C[C@@H](Oc2cc(-c3ccccc3)nc3cc(OC)ccc23)CN1C(=O)[C@@H](NC(=O)OC(C)(C)C)C(C)(C)C)C(=O)NS(=O)(=O)c1ccccc1C#N (some centres unmarked) [Compound 50]
EC50 ([1]; Hepatitis C virus, Huh-7, 96 h): < 5000 nM
IC50 [2, 3]: < 500 nM

C=CC1C[C@]1(NC(=O)[C@@H]1C[C@@H](Oc2cc(-c3ccccc3)nc3cc(OC)ccc23)CN1C(=O)[C@@H](NC(=O)OC(C)(C)C)C(C)(C)C)C(=O)NS(=O)(=O)C1CCCC1 (stereo in doubt) [Compound 12, {1-[2-(1-Cyclopentanesulfonylaminocarbonyl-2-vinylcyclopropylcarbamoyl)-4-(7-methoxy-2-phenylquinolin-4-yloxy)-pyrrolidine-1-carbonyl]-2,2-dimethylpropyl}carbamic acid tert-butyl ester]
EC50 ([1]; Hepatitis C virus, Huh-7, 96 h): < 500 nM
IC50 [2, 3]: < 500 nM

C=CCC[C@](C)(NC(=O)[C@@H]1C[C@@H](Oc2cc(-c3ccccc3)nc3cc(OC)ccc23)CN1C(=O)C(NC(=O)OC(C)(C)C)C(C)(C)C)C(=O)NS(=O)(=O)c1cccc(C)c1 (some centres unmarked) [Compound 36]
EC50 ([1]; Hepatitis C virus, Huh-7, 96 h): < 500 nM
IC50 [2, 3]: < 50 nM

C=C1C[C@]1(NC(=O)[C@@H]1C[C@@H](Oc2cc(-c3ccccc3)nc3cc(OC)ccc23)CN1C(=O)C(NC(=O)OC(C)(C)C)C(C)(C)C)C(=O)NS(=O)(=O)c1cccc(Br)c1 (some centres unmarked) [Compound 55]
EC50 ([1]; Hepatitis C virus, Huh-7, 96 h): < 50 nM
IC50 [2, 3]: < 50 nM

C=C1C[C@]1(NC(=O)[C@@H]1C[C@@H](Oc2cc(-c3ccccc3)nc3cc(OC)ccc23)CN1C(=O)C(NC(=O)OC(C)(C)C)C(C)(C)C)C(=O)NS(=O)(=O)c1ccccc1C(F)(F)F (some centres unmarked) [Compound 47]
EC50 ([1]; Hepatitis C virus, Huh-7, 96 h): < 500 nM
IC50 [2, 3]: < 50 nM

C=CC1CC1(NC(=O)OC(C)(C)C)C(=O)N1C[C@H](Oc2cc(-c3ccccc3)nc3cc(OC)ccc23)C[C@H]1C(=O)N[C@]1(C(=O)NS(=O)(=O)C2CC2)CC1CC (some centres unmarked) [Compound 69]
EC50 ([1]; Hepatitis C virus, Huh-7, 96 h): < 500 nM
IC50 [2, 3]: < 500 nM

C=C[C@@H]1C[C@]1(NC(=O)C1CC(Oc2cc(-c3ccccc3)nc3cc(OC)ccc23)CN1C(=O)[C@@H](NC(=O)CCl)C(C)(C)C)C(=O)NS(=O)(=O)C1CC1 (stereo partly drawn) [Compound 120, 1-[2S-(2-chloro-acetylamino)-3,3-dimethyl-butyryl]-4R-(7-methoxy-2-phenyl-quinolin-4-yloxy)-pyrrolidine-2S-carboxylic acid (1R-cyclopropanesulfonylaminocarbonyl-2S-vinylcyclopropyl)-amide]
EC50 ([1]; Hepatitis C virus, Huh-7, 96 h): < 50 nM
IC50 [2, 3]: < 50 nM

C=CC1C[C@]1(NC(=O)[C@@H]1C[C@@H](Oc2cc(-c3ccccc3)nc3cc(OC)ccc23)CN1C(=O)[C@H](CC(C)C)NC(=O)OC(C)(C)C)C(=O)NS(=O)(=O)C(C)C (some centres unmarked) [Compound 34]
EC50 ([1]; Hepatitis C virus, Huh-7, 96 h): < 500 nM
IC50 [2, 3]: < 50 nM
